Laboratory results published in patent US11076595B2, “1-(n,n-disubstituted carbamoyl) 4-(substituted sulfonyl)triazolin-5-one derivative, 4-(n,n-disubstituted carbamoyl) 1-(substituted sulfonyl)triazolin-5-one derivative, and herbicide containing said derivative as active ingredient” (HOKKO CHEMICAL INDUSTRY CO., LTD., priority 2017, dated 2021).

Legend:
Assay type in all cases: in vivo
[1] = tested on: Echinochloa crus-galli; test: Test Example 11: herbicidal effect test by soil treatment in paddy field; conditions: 120 g/10a active ingredient, 14 days after treatment
Outline: (§1)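 Seeds were sown 0-1 cm deep in puddled, fertilised paddy soil in Wagner pots and kept under about 3 cm of flooding in a greenhouse. Diluted emulsifiable concentrate was added dropwise right after sowing at 120 g a.i. per 10 are. Suppression (%) came from dry weight versus untreated pots after 14 days, two replicates.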

[2] = tested on: Lindernia pyxidaria; test: as above; conditions: 120 g/10a active ingredient, 14 days after treatment
Outline: as §1

[3] = tested on: Monochoria vaginalis; test: as above; conditions: 120 g/10a active ingredient, 14 days after treatment
Outline: as §1

[4] = tested on: Scirpus juncoides; test: as above; conditions: 120 g/10a active ingredient, 14 days after treatment
Outline: as §1

[5] = tested on: Amaranthus viridis; test: Test Example 14: herbicidal effect test by foliage treatment in upland field; conditions: 7 days after sowing, 120 g/10a, 14 days after treatment
Outline: (§2)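 Dose: 120 g a.i. per 10 are, sprayed in 100 L water per 10 are onto pots seven days post-sowing in alluvial soil. After 14 days, weed dry weight relative to untreated plots gave suppression rate (%); duplicate plots per concentration.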

[6] = tested on: Echinochloa crus-galli; test: as above; conditions: 7 days after sowing, 120 g/10a, 14 days after treatment
Outline: as §2

[7] = tested on: Chenopodium album; test: as above; conditions: 7 days after sowing, 120 g/10a, 14 days after treatment
Outline: as §2

[8] = tested on: crabgrass; test: as above; conditions: 7 days after sowing, 120 g/10a, 14 days after treatment
Outline: as §2

[9] = tested on: Echinochloa crus-galli; test: Test Example 12: herbicidal effect test by treatment during growing period in paddy field; conditions: 120 g/10a; treatment seven days after sowing in flooded paddy pot; assessed 14 days after treatment
Outline: (§3)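 Puddled paddy soil in Wagner pots, 30 seeds per species sown 0-1 cm deep, flooded to about 3 cm in a greenhouse. Seven days after sowing, water-diluted emulsifiable concentrate was dripped in at 120 g active ingredient per 10 are. Suppression (%) from dry weight versus untreated at 14 days, two replicates.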

[10] = tested on: Lindernia pyxidaria; test: as above; conditions: 120 g/10a; treatment seven days after sowing in flooded paddy pot; assessed 14 days after treatment
Outline: as §3

[11] = tested on: Monochoria vaginalis; test: as above; conditions: 120 g/10a; treatment seven days after sowing in flooded paddy pot; assessed 14 days after treatment
Outline: as §3

[12] = tested on: Scirpus juncoides; test: as above; conditions: 120 g/10a; treatment seven days after sowing in flooded paddy pot; assessed 14 days after treatment
Outline: as §3

[13] = tested on: Amaranthus viridis; test: Test Example 13: herbicidal effect test by soil treatment in upland field; conditions: 120 g/10a, 14 days after treatment
Outline: (§4)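 Pre-emergence soil treatment: alluvial soil pots (36 cm^2) sown with 20 seeds per weed species, sprayed one day later with water-diluted emulsifiable concentrate at 100 liter per 10 are, equal to 120 g active ingredient per 10 are. Two replicates; weed suppression (%) from dry weight versus untreated plots at 14 days.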

[14] = tested on: Echinochloa crus-galli; test: as above; conditions: 120 g/10a, 14 days after treatment
Outline: as §4

[15] = tested on: Chenopodium album; test: as above; conditions: 120 g/10a, 14 days after treatment
Outline: as §4

[16] = tested on: crabgrass; test: as above; conditions: 120 g/10a, 14 days after treatment
Outline: as §4

CC(C)N(C(=O)n1cnn(S(=O)(=O)C2CCCCC2)c1=O)c1ccc(F)cc1Cl [Compound 11-301]
Weed suppression rate (%) Echinochloa crus-galli [1]: 90%
Weed suppression rate (%) Lindemia pyxidaria [2]: 80%
Weed suppression rate (%) Monochoria vaginalis [3]: 80%
Weed suppression rate (%) Scirpus juncoides [4]: 90%
herbicidal effect, Amaranthus viridis [5]: 90%
herbicidal effect, Echinochloa crus-galli [6]: 80%
herbicidal effect, Chenopodium album [7]: 80%
herbicidal effect, Crabgrass [8]: 90%
Weed suppression rate (%) Echinochloa crus-galli [9]: 90%
Weed suppression rate (%) Lindemia pyxidaria [10]: 80%
Weed suppression rate (%) Monochoria vaginalis [11]: 80%
Weed suppression rate (%) Scirpus juncoides [12]: 90%
herbicidal effect, Amaranthus viridis [13]: 90%
herbicidal effect, Echinochloa crus-galli [14]: 80%
herbicidal effect, Chenopodium album [15]: 80%
herbicidal effect, Crabgrass [16]: 90%

CC(C)N(C(=O)n1cnn(S(C)(=O)=O)c1=O)c1ccc(Cl)cn1 [Compound 11-38]
Weed suppression rate (%) Echinochloa crus-galli [1]: 100%
Weed suppression rate (%) Lindemia pyxidaria [2]: 80%
Weed suppression rate (%) Monochoria vaginalis [3]: 70%
Weed suppression rate (%) Scirpus juncoides [4]: 70%
herbicidal effect, Amaranthus viridis [5]: 0%
herbicidal effect, Echinochloa crus-galli [6]: 90%
herbicidal effect, Chenopodium album [7]: 0%
herbicidal effect, Crabgrass [8]: 90%
Weed suppression rate (%) Echinochloa crus-galli [9]: 100%
Weed suppression rate (%) Lindemia pyxidaria [10]: 90%
Weed suppression rate (%) Monochoria vaginalis [11]: 80%
Weed suppression rate (%) Scirpus juncoides [12]: 90%
herbicidal effect, Amaranthus viridis [13]: 0%
herbicidal effect, Echinochloa crus-galli [14]: 90%
herbicidal effect, Chenopodium album [15]: 40%
herbicidal effect, Crabgrass [16]: 90%

CC(C)N(C(=O)n1cnn(S(=O)(=O)c2cccc(F)c2)c1=O)c1ccccc1 [Compound 11-427]
Weed suppression rate (%) Echinochloa crus-galli [1]: 100%
Weed suppression rate (%) Lindemia pyxidaria [2]: 80%
Weed suppression rate (%) Monochoria vaginalis [3]: 60%
Weed suppression rate (%) Scirpus juncoides [4]: 60%
herbicidal effect, Amaranthus viridis [5]: 40%
herbicidal effect, Echinochloa crus-galli [6]: 40%
herbicidal effect, Chenopodium album [7]: 60%
herbicidal effect, Crabgrass [8]: 90%
Weed suppression rate (%) Echinochloa crus-galli [9]: 90%
Weed suppression rate (%) Lindemia pyxidaria [10]: 90%
Weed suppression rate (%) Monochoria vaginalis [11]: 90%
Weed suppression rate (%) Scirpus juncoides [12]: 90%
herbicidal effect, Amaranthus viridis [13]: 40%
herbicidal effect, Echinochloa crus-galli [14]: 70%
herbicidal effect, Chenopodium album [15]: 60%
herbicidal effect, Crabgrass [16]: 90%

CC(C)N(C(=O)n1cnn(S(=O)(=O)C2CC2)c1=O)c1ccccc1F [Compound 11-160]
Weed suppression rate (%) Echinochloa crus-galli [1]: 100%
Weed suppression rate (%) Lindemia pyxidaria [2]: 90%
Weed suppression rate (%) Monochoria vaginalis [3]: 70%
Weed suppression rate (%) Scirpus juncoides [4]: 90%
herbicidal effect, Amaranthus viridis [5]: 90%
herbicidal effect, Echinochloa crus-galli [6]: 80%
herbicidal effect, Chenopodium album [7]: 80%
herbicidal effect, Crabgrass [8]: 90%
Weed suppression rate (%) Echinochloa crus-galli [9]: 100%
Weed suppression rate (%) Lindemia pyxidaria [10]: 90%
Weed suppression rate (%) Monochoria vaginalis [11]: 70%
Weed suppression rate (%) Scirpus juncoides [12]: 90%
herbicidal effect, Amaranthus viridis [13]: 90%
herbicidal effect, Echinochloa crus-galli [14]: 80%
herbicidal effect, Chenopodium album [15]: 80%
herbicidal effect, Crabgrass [16]: 90%

CC(C)N(C(=O)n1cnn(S(C)(=O)=O)c1=O)c1cccc(F)c1F [Compound 11-11]
Weed suppression rate (%) Echinochloa crus-galli [1]: 100%
Weed suppression rate (%) Lindemia pyxidaria [2]: 100%
Weed suppression rate (%) Monochoria vaginalis [3]: 100%
Weed suppression rate (%) Scirpus juncoides [4]: 100%
herbicidal effect, Amaranthus viridis [5]: 60%
herbicidal effect, Echinochloa crus-galli [6]: 100%
herbicidal effect, Chenopodium album [7]: 70%
herbicidal effect, Crabgrass [8]: 100%
Weed suppression rate (%) Echinochloa crus-galli [9]: 100%
Weed suppression rate (%) Lindemia pyxidaria [10]: 80%
Weed suppression rate (%) Monochoria vaginalis [11]: 100%
Weed suppression rate (%) Scirpus juncoides [12]: 100%
herbicidal effect, Amaranthus viridis [13]: 30%
herbicidal effect, Echinochloa crus-galli [14]: 80%
herbicidal effect, Chenopodium album [15]: 30%
herbicidal effect, Crabgrass [16]: 90%

CC(C)N(C(=O)n1cnn(S(=O)(=O)c2ccccc2)c1=O)c1ccc(F)cc1F [Compound 11-367]
Weed suppression rate (%) Echinochloa crus-galli [1]: 100%
Weed suppression rate (%) Lindemia pyxidaria [2]: 100%
Weed suppression rate (%) Monochoria vaginalis [3]: 90%
Weed suppression rate (%) Scirpus juncoides [4]: 90%
herbicidal effect, Amaranthus viridis [5]: 40%
herbicidal effect, Echinochloa crus-galli [6]: 90%
herbicidal effect, Chenopodium album [7]: 40%
herbicidal effect, Crabgrass [8]: 90%
Weed suppression rate (%) Echinochloa crus-galli [9]: 100%
Weed suppression rate (%) Lindemia pyxidaria [10]: 90%
Weed suppression rate (%) Monochoria vaginalis [11]: 90%
Weed suppression rate (%) Scirpus juncoides [12]: 90%
herbicidal effect, Amaranthus viridis [13]: 40%
herbicidal effect, Echinochloa crus-galli [14]: 100%
herbicidal effect, Chenopodium album [15]: 40%
herbicidal effect, Crabgrass [16]: 100%

CC(C)N(C(=O)n1cnn(S(=O)(=O)N(C)C)c1=O)c1ccc(Cl)cn1 [Compound 11-1090]
Weed suppression rate (%) Echinochloa crus-galli [1]: 100%
Weed suppression rate (%) Lindemia pyxidaria [2]: 100%
Weed suppression rate (%) Monochoria vaginalis [3]: 60%
Weed suppression rate (%) Scirpus juncoides [4]: 90%
herbicidal effect, Amaranthus viridis [5]: 40%
herbicidal effect, Echinochloa crus-galli [6]: 90%
herbicidal effect, Chenopodium album [7]: 40%
herbicidal effect, Crabgrass [8]: 90%
Weed suppression rate (%) Echinochloa crus-galli [9]: 100%
Weed suppression rate (%) Lindemia pyxidaria [10]: 90%
Weed suppression rate (%) Monochoria vaginalis [11]: 60%
Weed suppression rate (%) Scirpus juncoides [12]: 90%
herbicidal effect, Amaranthus viridis [13]: 50%
herbicidal effect, Echinochloa crus-galli [14]: 80%
herbicidal effect, Chenopodium album [15]: 50%
herbicidal effect, Crabgrass [16]: 90%
